± gives the expanded uncertainty stated by the source.
Assay: molar heat capacity at constant pressure
Details: 101.33 kPa

O=P([O-])([O-])[O-].[Fe+2].[Li+] [iron(II) lithium phosphate]
Details | molar heat capacity at constant pressure [J/K/mol]
2.03 K, Crystal 2, relaxation calorimetry | 0.0162 ± 0.0013
2.2 K, Crystal 2, relaxation calorimetry | 0.0187 ± 0.0015
2.38 K, Crystal 2, relaxation calorimetry | 0.0224 ± 0.0018
2.58 K, Crystal 2, relaxation calorimetry | 0.0243 ± 0.0019
2.8 K, Crystal 2, relaxation calorimetry | 0.0271 ± 0.0021
3.04 K, Crystal 2, relaxation calorimetry | 0.0309 ± 0.0024
3.29 K, Crystal 2, relaxation calorimetry | 0.0325 ± 0.0026
3.56 K, Crystal 2, relaxation calorimetry | 0.0401 ± 0.0032
3.86 K, Crystal 2, relaxation calorimetry | 0.048 ± 0.0038
4.19 K, Crystal 2, relaxation calorimetry | 0.0562 ± 0.0044
4.54 K, Crystal 2, relaxation calorimetry | 0.059 ± 0.0046
4.92 K, Crystal 2, relaxation calorimetry | 0.0709 ± 0.0056
5 K, Crystal 2, relaxation calorimetry | 0.0481 ± 0.004
5.33 K, Crystal 2, relaxation calorimetry | 0.0742 ± 0.0058
5.78 K, Crystal 2, relaxation calorimetry | 0.0903 ± 0.0071
6.26 K, Crystal 2, relaxation calorimetry | 0.101 ± 0.008
6.78 K, Crystal 2, relaxation calorimetry | 0.12 ± 0.009
7.35 K, Crystal 2, relaxation calorimetry | 0.138 ± 0.011
7.97 K, Crystal 2, relaxation calorimetry | 0.173 ± 0.014
8.64 K, Crystal 2, relaxation calorimetry | 0.22 ± 0.017
9.36 K, Crystal 2, relaxation calorimetry | 0.276 ± 0.022
10 K, Crystal 2, relaxation calorimetry | 0.3419 ± 0.027
10.14 K, Crystal 2, relaxation calorimetry | 0.364 ± 0.036
10.23 K, Crystal 2, relaxation calorimetry | 0.46 ± 0.042
10.75 K, Crystal 2, relaxation calorimetry | 0.535 ± 0.042
11.26 K, Crystal 2, relaxation calorimetry | 0.615 ± 0.048
11.77 K, Crystal 2, relaxation calorimetry | 0.706 ± 0.055
12.28 K, Crystal 2, relaxation calorimetry | 0.808 ± 0.063
12.8 K, Crystal 2, relaxation calorimetry | 0.917 ± 0.072
13.31 K, Crystal 2, relaxation calorimetry | 1.038 ± 0.082
13.83 K, Crystal 2, relaxation calorimetry | 1.171 ± 0.092
14.34 K, Crystal 2, relaxation calorimetry | 1.314 ± 0.1
14.85 K, Crystal 2, relaxation calorimetry | 1.467 ± 0.12
15 K, Crystal 2, relaxation calorimetry | 1.514 ± 0.12
15.36 K, Crystal 2, relaxation calorimetry | 1.631 ± 0.13
15.88 K, Crystal 2, relaxation calorimetry | 1.797 ± 0.14
16.39 K, Crystal 2, relaxation calorimetry | 1.977 ± 0.15
16.9 K, Crystal 2, relaxation calorimetry | 2.169 ± 0.17
17.41 K, Crystal 2, relaxation calorimetry | 2.363 ± 0.18
17.93 K, Crystal 2, relaxation calorimetry | 2.571 ± 0.2
18.44 K, Crystal 2, relaxation calorimetry | 2.79 ± 0.22
18.95 K, Crystal 2, relaxation calorimetry | 3.015 ± 0.24
19.47 K, Crystal 2, relaxation calorimetry | 3.249 ± 0.26
19.98 K, Crystal 2, relaxation calorimetry | 3.484 ± 0.27
20 K, Crystal 2, relaxation calorimetry | 3.498 ± 0.27
20.49 K, Crystal 2, relaxation calorimetry | 3.75 ± 0.15
21.01 K, Crystal 2, relaxation calorimetry | 3.99 ± 0.16
21.51 K, Crystal 2, relaxation calorimetry | 4.26 ± 0.17
22.03 K, Crystal 2, relaxation calorimetry | 4.55 ± 0.19
22.54 K, Crystal 2, relaxation calorimetry | 4.83 ± 0.2
23.05 K, Crystal 2, relaxation calorimetry | 5.13 ± 0.21
23.56 K, Crystal 2, relaxation calorimetry | 5.43 ± 0.22
24.08 K, Crystal 2, relaxation calorimetry | 5.74 ± 0.23
24.59 K, Crystal 2, relaxation calorimetry | 6.06 ± 0.25
25 K, Crystal 2, relaxation calorimetry | 6.334 ± 0.26
25.1 K, Crystal 2, relaxation calorimetry | 6.4 ± 0.26
25.61 K, Crystal 2, relaxation calorimetry | 6.75 ± 0.28
26.13 K, Crystal 2, relaxation calorimetry | 7.09 ± 0.29
26.64 K, Crystal 2, relaxation calorimetry | 7.45 ± 0.3
27.15 K, Crystal 2, relaxation calorimetry | 7.84 ± 0.32
27.67 K, Crystal 2, relaxation calorimetry | 8.22 ± 0.34
28.18 K, Crystal 2, relaxation calorimetry | 8.63 ± 0.35
28.69 K, Crystal 2, relaxation calorimetry | 9.04 ± 0.37
29.2 K, Crystal 2, relaxation calorimetry | 9.47 ± 0.39
29.71 K, Crystal 2, relaxation calorimetry | 9.92 ± 0.4
30 K, Crystal 2, relaxation calorimetry | 10.17 ± 0.41
30.22 K, Crystal 2, relaxation calorimetry | 10.36 ± 0.42
30.73 K, Crystal 2, relaxation calorimetry | 10.82 ± 0.44
31.24 K, Crystal 2, relaxation calorimetry | 11.31 ± 0.46
31.76 K, Crystal 2, relaxation calorimetry | 11.78 ± 0.48
32.27 K, Crystal 2, relaxation calorimetry | 12.28 ± 0.5
32.78 K, Crystal 2, relaxation calorimetry | 12.78 ± 0.52
33.29 K, Crystal 2, relaxation calorimetry | 13.28 ± 0.54
33.8 K, Crystal 2, relaxation calorimetry | 13.81 ± 0.56
34.31 K, Crystal 2, relaxation calorimetry | 14.35 ± 0.58
34.82 K, Crystal 2, relaxation calorimetry | 14.9 ± 0.61
35 K, Crystal 2, relaxation calorimetry | 15.09 ± 0.61
35.34 K, Crystal 2, relaxation calorimetry | 15.46 ± 0.63
35.85 K, Crystal 2, relaxation calorimetry | 16.03 ± 0.65
37.02 K, Crystal 2, relaxation calorimetry | 17.18 ± 0.7
38.89 K, Crystal 2, relaxation calorimetry | 19.19 ± 0.78
40 K, Crystal 2, relaxation calorimetry | 20.69 ± 0.84
40.75 K, Crystal 2, relaxation calorimetry | 21.8 ± 0.89
42 K, Crystal 2, relaxation calorimetry | 23.73 ± 0.96
42.62 K, Crystal 2, relaxation calorimetry | 24.74 ± 1
44.48 K, Crystal 2, relaxation calorimetry | 28.1 ± 1.1
45 K, Crystal 2, relaxation calorimetry | 29.13 ± 1.2
45.5 K, Crystal 2, relaxation calorimetry | 30.18 ± 1.2
45.72 K, Crystal 2, relaxation calorimetry | 30.67 ± 1.2
45.92 K, Crystal 2, relaxation calorimetry | 31.15 ± 1.3
46 K, Crystal 2, relaxation calorimetry | 31.31 ± 1.3
46.14 K, Crystal 2, relaxation calorimetry | 31.65 ± 1.3
46.34 K, Crystal 2, relaxation calorimetry | 32.17 ± 1.3
46.55 K, Crystal 2, relaxation calorimetry | 32.68 ± 1.3
46.75 K, Crystal 2, relaxation calorimetry | 33.24 ± 1.4
46.97 K, Crystal 2, relaxation calorimetry | 33.77 ± 1.4
47 K, Crystal 2, relaxation calorimetry | 33.89 ± 1.4
47.16 K, Crystal 2, relaxation calorimetry | 34.33 ± 1.4
47.38 K, Crystal 2, relaxation calorimetry | 34.9 ± 1.4
47.58 K, Crystal 2, relaxation calorimetry | 35.53 ± 1.4
47.8 K, Crystal 2, relaxation calorimetry | 36.14 ± 1.5
47.99 K, Crystal 2, relaxation calorimetry | 36.79 ± 1.5
48 K, Crystal 2, relaxation calorimetry | 36.77 ± 1.5
48.2 K, Crystal 2, relaxation calorimetry | 37.43 ± 1.5
48.4 K, Crystal 2, relaxation calorimetry | 38.11 ± 1.6
48.62 K, Crystal 2, relaxation calorimetry | 38.7 ± 1.6
48.82 K, Crystal 2, relaxation calorimetry | 39.3 ± 1.6
49 K, Crystal 2, relaxation calorimetry | 39.73 ± 1.6
49.03 K, Crystal 2, relaxation calorimetry | 39.72 ± 1.6
49.22 K, Crystal 2, relaxation calorimetry | 40.03 ± 1.6
49.24 K, Crystal 1, combination of DSC and relaxation calorimetry | 39.99 ± 1.6
49.24 K, Crystal 2, relaxation calorimetry | 39.99 ± 1.6
49.44 K, Crystal 1, relaxation calorimetry | 39.73 ± 1.7
49.64 K, Crystal 1, relaxation calorimetry | 38.83 ± 1.6
49.85 K, Crystal 1, relaxation calorimetry | 36.64 ± 1.6
50 K, Crystal 1, combination of DSC and relaxation calorimetry | 34.52 ± 1.4
50.05 K, Crystal 1, relaxation calorimetry | 33.84 ± 1.4
50.27 K, Crystal 1, relaxation calorimetry | 30.69 ± 1.3
50.47 K, Crystal 1, relaxation calorimetry | 28.52 ± 1.2
50.69 K, Crystal 1, relaxation calorimetry | 26.66 ± 1.1
50.89 K, Crystal 1, relaxation calorimetry | 25.59 ± 1.1
51 K, Crystal 1, combination of DSC and relaxation calorimetry | 25.15 ± 1
51.08 K, Crystal 1, relaxation calorimetry | 24.86 ± 1
51.29 K, Crystal 1, relaxation calorimetry | 24.3 ± 1
51.5 K, Crystal 1, relaxation calorimetry | 23.89 ± 0.97
51.7 K, Crystal 1, relaxation calorimetry | 23.58 ± 0.96
51.9 K, Crystal 1, relaxation calorimetry | 23.36 ± 0.95
52 K, Crystal 1, combination of DSC and relaxation calorimetry | 23.25 ± 0.95
52.12 K, Crystal 1, relaxation calorimetry | 23.13 ± 0.94
52.32 K, Crystal 1, relaxation calorimetry | 22.99 ± 0.93
52.53 K, Crystal 1, relaxation calorimetry | 22.88 ± 0.93
52.72 K, Crystal 1, relaxation calorimetry | 22.83 ± 0.93
52.94 K, Crystal 1, relaxation calorimetry | 22.74 ± 0.92
53 K, Crystal 1, combination of DSC and relaxation calorimetry | 22.72 ± 0.92
53.14 K, Crystal 1, relaxation calorimetry | 22.69 ± 0.92
53.35 K, Crystal 1, relaxation calorimetry | 22.66 ± 0.92
53.55 K, Crystal 1, relaxation calorimetry | 22.66 ± 0.92
53.77 K, Crystal 1, relaxation calorimetry | 22.66 ± 0.92
53.96 K, Crystal 1, relaxation calorimetry | 22.66 ± 0.92
54 K, Crystal 1, combination of DSC and relaxation calorimetry | 22.66 ± 0.92
54.18 K, Crystal 1, relaxation calorimetry | 22.69 ± 0.92
54.38 K, Crystal 1, relaxation calorimetry | 22.68 ± 0.92
54.59 K, Crystal 1, relaxation calorimetry | 22.73 ± 0.92
54.79 K, Crystal 1, relaxation calorimetry | 22.77 ± 0.92
55 K, Crystal 1, combination of DSC and relaxation calorimetry | 22.82 ± 0.93
55 K, Crystal 1, relaxation calorimetry | 22.82 ± 0.93
55.2 K, Crystal 1, relaxation calorimetry | 22.85 ± 0.93
55.41 K, Crystal 1, relaxation calorimetry | 22.91 ± 0.93
55.62 K, Crystal 1, relaxation calorimetry | 22.95 ± 0.93
56.61 K, Crystal 1, relaxation calorimetry | 23.28 ± 0.95
57.71 K, Crystal 1, relaxation calorimetry | 23.69 ± 0.96
58.79 K, Crystal 1, relaxation calorimetry | 24.17 ± 0.98
59.89 K, Crystal 1, relaxation calorimetry | 24.67 ± 1
60 K, Crystal 1, combination of DSC and relaxation calorimetry | 24.71 ± 1
60.97 K, Crystal 1, relaxation calorimetry | 25.19 ± 1
62.06 K, Crystal 1, relaxation calorimetry | 25.78 ± 1.1
63.15 K, Crystal 1, relaxation calorimetry | 26.36 ± 1.1
64.24 K, Crystal 1, relaxation calorimetry | 26.97 ± 1.1
65 K, Crystal 1, combination of DSC and relaxation calorimetry | 27.41 ± 1.1
65.33 K, Crystal 1, relaxation calorimetry | 27.59 ± 1.1
